Experimental data: patent US8470855B2, “Dual-use peptidase inhibitors as prodrugs for a therapy of inflammatory and other diseases” (IMTM GmbH, priority 2005, dated 2013)

What was measured:
[1] = target: T1, APN (Leucin aminopeptidase, microsomal, EC 3.4.11.2) (Sus scrofa, UniProt P15145); assay: IC50 determination against APN after reduction of the prodrugs with DTT; type: biochemical; details: after release (reduction with DTT) of the inhibitors from the prodrugs; pig kidney enzyme, substrate Leu-AMC, pH 7.2, 30° C.; read-out: APN (IC 50 [M])
T1 construct: purchased Sigma; host or cells: pig kidney (tissue-derived)
T1 sequence (P15145 1-963): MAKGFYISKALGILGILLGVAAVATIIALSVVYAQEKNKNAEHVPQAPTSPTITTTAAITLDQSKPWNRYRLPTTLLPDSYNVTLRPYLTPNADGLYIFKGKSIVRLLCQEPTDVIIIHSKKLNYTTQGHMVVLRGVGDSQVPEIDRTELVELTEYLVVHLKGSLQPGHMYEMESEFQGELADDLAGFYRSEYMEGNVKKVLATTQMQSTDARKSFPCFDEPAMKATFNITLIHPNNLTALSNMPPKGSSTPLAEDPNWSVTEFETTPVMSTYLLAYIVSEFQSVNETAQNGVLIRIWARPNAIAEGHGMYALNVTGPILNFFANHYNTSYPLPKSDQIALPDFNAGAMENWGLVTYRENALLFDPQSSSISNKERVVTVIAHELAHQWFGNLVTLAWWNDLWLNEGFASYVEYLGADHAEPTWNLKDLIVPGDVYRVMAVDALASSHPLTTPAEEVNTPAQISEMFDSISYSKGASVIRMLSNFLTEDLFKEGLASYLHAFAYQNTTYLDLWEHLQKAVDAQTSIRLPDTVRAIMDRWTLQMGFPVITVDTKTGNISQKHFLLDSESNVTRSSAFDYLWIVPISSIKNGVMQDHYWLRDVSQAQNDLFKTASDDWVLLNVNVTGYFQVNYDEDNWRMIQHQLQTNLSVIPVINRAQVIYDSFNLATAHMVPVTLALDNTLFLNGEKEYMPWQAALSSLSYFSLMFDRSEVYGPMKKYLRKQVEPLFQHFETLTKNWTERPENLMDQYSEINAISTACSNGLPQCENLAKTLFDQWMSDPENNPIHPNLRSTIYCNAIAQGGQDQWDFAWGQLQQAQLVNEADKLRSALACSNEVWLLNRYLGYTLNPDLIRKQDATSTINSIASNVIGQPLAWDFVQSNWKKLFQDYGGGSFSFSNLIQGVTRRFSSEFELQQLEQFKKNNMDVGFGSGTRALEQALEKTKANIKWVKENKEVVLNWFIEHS
Procedure: (§1) Process of the Reduction with DTT:
(§2) Same volumes of the 7·10^−2 M solution of the inhibitor in water or DMF and a 0.35 M aqueous DTT-solution (5 equivalents) were agitated 4 hours at RT.
(§3) Subsequently to the reductive treatment of the prodrugs the IC50-values were estimated using the following process:
(§4) Determination of the IC50-Values after Reduction:
Leucin aminopeptidase, microsomal, from pig kidney (EC 3.4.11.2).
Suspension in 3.5 M (NH4)2SO4-solution (Sigma).
Substrate: Leu-AMC, [S]=1.5·10^−4 M (2 Km) in the reaction batch.
Buffer: 40 mM Tris/HCl-buffer, pH 7.2 in the reaction batch. […]
(§5) 60 μl of these inhibitor solutions each or water (standard), were incubated with 80 μl of the according diluted enzymes in buffer for 15 minutes at 30° C. and subsequently 60 μl of the according AMC-substrate in water (total volume 200 μl) were added. The release of the 7-Amino-4-methyl-cumarin was traced continuously over a period of 20 minutes at 30° C. using a fluorence-pladt-reader NOVOstar (BMG Labtechnologies). The enzyme concentration was chosen to give a linear increase of the fluorescence during the measuring period.
The excitation- and emission-wavelengths, respectively, were 390 and 460 nm. […] The turn-over rates (increase of fluorescence/minutes) were plotted against the concentration of the inhibitor and the IC50-values were calculated using the computer program GraFit. […]

[2] = target: T2, Dipeptidyl peptidase IV (EC 3.4.14.5.) (Sus scrofa, UniProt P22411); assay: IC50 determination against DP IV after reduction of the prodrugs with DTT; type: biochemical; details: after release (reduction with DTT) of the inhibitors from the prodrugs; pig kidney enzyme, substrate Ala-Pro-AMC, pH 7.6, 30° C.; read-out: DP IV (IC 50 [M])
T2 construct: purchased Sigma; host or cells: pig kidney (tissue-derived)
T2 sequence (P22411 whole entry): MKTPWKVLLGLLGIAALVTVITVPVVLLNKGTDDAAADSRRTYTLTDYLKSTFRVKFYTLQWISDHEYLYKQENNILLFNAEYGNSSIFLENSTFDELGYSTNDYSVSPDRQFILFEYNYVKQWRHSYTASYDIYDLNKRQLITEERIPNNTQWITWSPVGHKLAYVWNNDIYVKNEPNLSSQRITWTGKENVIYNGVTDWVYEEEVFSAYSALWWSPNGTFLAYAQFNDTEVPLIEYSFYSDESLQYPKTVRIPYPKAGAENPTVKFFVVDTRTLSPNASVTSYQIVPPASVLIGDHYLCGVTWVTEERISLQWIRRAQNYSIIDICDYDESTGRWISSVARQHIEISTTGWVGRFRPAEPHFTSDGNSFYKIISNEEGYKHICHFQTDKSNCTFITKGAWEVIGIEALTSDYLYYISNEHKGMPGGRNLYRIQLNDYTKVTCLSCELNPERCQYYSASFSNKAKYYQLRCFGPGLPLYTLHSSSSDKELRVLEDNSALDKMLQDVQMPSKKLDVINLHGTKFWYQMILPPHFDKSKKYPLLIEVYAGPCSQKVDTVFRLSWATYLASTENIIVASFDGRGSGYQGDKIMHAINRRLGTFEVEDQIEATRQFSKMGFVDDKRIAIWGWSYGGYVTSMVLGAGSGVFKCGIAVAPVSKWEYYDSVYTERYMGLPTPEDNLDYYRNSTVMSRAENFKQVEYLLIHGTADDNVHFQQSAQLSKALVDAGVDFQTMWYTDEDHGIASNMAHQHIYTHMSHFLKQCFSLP
Procedure: as §1, §2, §3, §4
Dipeptidyl peptidase IV from pig kidney (EC 3.4.14.5.), lyophilisated powder (Sigma).
Substrate: Ala-Pro-AMC, [S]=3·10^−5 M (2 Km) in the reaction batch.
Buffer: 40 mM Tris/HCl-buffer, pH 7.6, I=0.125 in the reaction batch.
By dilution with water 10 to 12 solutions with defined inhibitor concentration were prepared from the reduction batch. These were selected from a relevant concentration range, i.e. between complete inhibition and non-influenced enzyme activity.
as §5, with “period. […]” for “period.”

IC50 [1] | Structure (SMILES) | IC50 [2]
3.02e-07 M | CCCCC[C@H](CC(=O)NO)C(=O)N[C@H](C(=O)N1CCC[C@H]1CO)C(C)C [Actinonine, actinonine] | –
– | NC(CCCCNC(=O)OCc1ccc([N+](=O)[O-])cc1)C(=O)N1CCSC1 (centres unmarked) [Lys[Z(NO2)]-thiazolidide, H-Lys[Z(NO2)]-thiazolidide] | 4.34e-07 M
